Assay results published in patent publication US20170253607A1, “LONG-ACTING HIV PROTEASE INHIBITOR” (Shionogi & Co., Ltd., priority 2014, published 2017).
pIC50: −log10 of the molar value.

target: HIV-1 PR (Human immunodeficiency virus type 1 group M subtype B, UniProt P04585); assay: HIV-protease inhibitory activity assay (FRET peptide substrate); format: biochemical; settings: Test Example 1
Method in brief: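 HIV-1 PR (0.83 ng) preincubated with compounds 20 min at room temperature in 0.1 mol/L NaAc, 0.5 mol/L NaCl, 1 mmol/L EDTA, 1 mmol/L DTT, 0.05% Tween 20, pH 4.8. Cleavage of HiLyte Fluor 488/QXL 520 FRET peptide (2 μmol/L) read after 60 minutes at 485/535 nm; IC50 from four-parameter logistic fit.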

Point of comparison: `COc1ccc(S(=O)(=O)N(CC(C)C)CC(O)C(Cc2ccc(OCC3CCCN3c3ccccc3-c3sc4c(c3C(=O)O)CC(C)(C)CC4)cc2)NC(=O)OC2COC3(C)OCCC23)cc1` (stereo not drawn) [Compound I-95], pIC50 8.68. Against it:
- COc1ccc(S(=O)(=O)N(CC(C)C)CC(O)C(Cc2ccc(N(C)Cc3cc(N4CCC4)ccc3-c3sc4c(c3C(=O)O)CC(C)(C)CC4)cc2)NC(=O)OC2COC3(C)OCCC23)cc1 (stereo not drawn) [Compound I-708] — within 0.2 log units, 8.78
- COc1ccc(S(=O)(=O)N(CC(C)C)C[C@@H](O)[C@H](Cc2ccc(OCc3ccc(-c4ccc(F)cc4F)cc3C(=O)NC(=O)NC(C)(C)C)cc2)NC(=O)O[C@H]2CO[C@@]3(C)OCC[C@@H]23)cc1 [Compound I-25] — the same, 8.68
- COc1ccc(S(=O)(=O)N(CC(C)C)CC(O)C(Cc2ccc(NCc3cccc4c(-c5sc6c(c5C(=O)O)CC(C)(C)CC6)cccc34)cc2)NC(=O)OC2COC3(C)OCCC23)cc1 (stereo not drawn) [Compound I-675] — 0.81 log units lower, 7.87
- CC(C)CN(CC(O)C(Cc1ccc(OCc2ccccc2-c2ccc3c(c2)C(=O)C(c2ccc(F)cc2)C3=O)cc1)NC(=O)OC1COC2(C)OCCC12)S(=O)(=O)c1ccc2c(c1)OCO2 (stereo not drawn) [Compound I-174] — the same, 8.68
- COc1ccc(S(=O)(=O)N(CC(C)C)C[C@@H](O)[C@H](Cc2ccc(COc3ccccc3-c3sc4c(c3C(=O)O)CC(C)(C)CC4)cc2)NC(=O)O[C@H]2CO[C@@]3(C)OCC[C@@H]23)cc1 [Compound I-4] — within 0.2 log units, 8.77
- COc1ccc(S(=O)(=O)N(CC(C)C)CC(O)C(Cc2ccc(N(C)Cc3cc(OC(F)(F)F)ccc3-c3sc4c(c3C(=O)O)CC(C)(C)CC4)cc2)NC(=O)OC2COC3(C)OCCC23)cc1 (stereo not drawn) [Compound I-699] — 0.69 log units lower, 7.99
- COc1ccc(S(=O)(=O)N(CC(C)C)CC(O)C(Cc2ccc(OCc3ccccc3-c3ccc4c(c3)C(=O)C(c3ccc(C(F)(F)F)cc3)C4=O)cc2)NC(=O)OC2COC3(C)OCCC23)cc1 (stereo not drawn) [Compound I-71] — within 0.2 log units, 8.75
- COc1ccc(S(=O)(=O)N(CC(C)C)CC(O)C(Cc2ccc(NCc3ccccc3-c3cnc(-c4sc5c(c4C(=O)O)CC(C)(C)CC5)nc3)cc2)NC(=O)OC2COC3(C)OCCC23)cc1 (stereo not drawn) [Compound I-712] — within 0.2 log units, 8.69
- COc1ccc(S(=O)(=O)N(CC(C)C)CC(O)C(Cc2ccc(N(C)CCCc3sc4c(c3C(=O)O)CC(C)(C)CC4)cc2)NC(=O)OC2COC3(C)OCCC23)cc1 (stereo not drawn) [Compound I-336] — within 0.2 log units, 8.67
- COc1ccc(S(=O)(=O)N(CC(C)C)CC(O)C(Cc2ccc(NCc3cccnc3-c3sc4c(c3C(=O)O)CC(C)(C)CC4)cc2)NC(=O)OC2COC3(C)OCCC23)cc1 (stereo not drawn) [Compound I-128] — within 0.2 log units, 8.66
- COc1ccc(S(=O)(=O)N(CC(C)C)CC(O)C(Cc2ccc(NCc3ccc(OCC(=O)O)cc3)cc2)NC(=O)OC2COC3(C)OCCC23)cc1 (stereo not drawn) [Compound I-321] — within 0.2 log units, 8.72
- COc1ccc(S(=O)(=O)N(CC(C)C)CC(O)C(Cc2ccc(N(C)Cc3nc(N(C4CCCCC4)C4CCCCC4)sc3-c3sc4c(c3C(=O)O)CC(C)(C)CC4)cc2)NC(=O)OC2COC3(C)OCCC23)cc1 (stereo not drawn) [Compound I-761] — 0.51 log units lower, 8.17
- COc1ccc(S(=O)(=O)N(CC(C)C)CC(O)C(Cc2ccc(OC3CCN(C(=O)Nc4ccc(Cl)cc4-c4sc5c(c4C(=O)O)CC(C)(C)CC5)C3)cc2)NC(=O)OC2COC3(C)OCCC23)cc1 (stereo not drawn) [Compound I-244] — within 0.2 log units, 8.70
- COc1ccc(S(=O)(=O)N(CC(C)C)CC(O)C(Cc2ccc(N3CCC(c4ccc(-c5sc6c(c5C(=O)O)CC(C)(C)CC6)cc4)C3)cc2)NC(=O)OC2COC3(C)OCCC23)cc1 (stereo not drawn) [Compound I-576] — 0.37 log units lower, 8.31
- COc1ccc(S(=O)(=O)N(CC(C)C)CC(O)C(Cc2ccc(NCC3CCCCN3C(=O)c3sc4c(c3C(=O)O)CC(C)(C)CC4)cc2)NC(=O)OC2COC3(C)OCCC23)cc1 (stereo not drawn) [Compound I-604] — within 0.2 log units, 8.66
- COc1ccc(S(=O)(=O)N(CC(C)C)CC(O)C(Cc2ccc(NC3CCCc4c(-c5sc6c(c5C(=O)O)CC(C)(C)CC6)cccc43)cc2)NC(=O)OC2COC3(C)OCCC23)cc1 (stereo not drawn) [Compound I-711] — 0.59 log units lower, 8.09
- COc1ccc(S(=O)(=O)N(CC(C)C)CC(O)C(Cc2ccc(N(C)Cc3cccc(F)c3-c3sc4c(c3C(=O)O)CC(C)(C)CC4)cc2)NC(=O)OC2COC3(C)OCCC23)cc1 (stereo not drawn) [Compound I-493] — within 0.2 log units, 8.61
